Measured values published in US8802597B2, “Herbicidal pyrimidines” (E I du Pont de Nemours and Company, priority 2003, dated 2014).

Legend:
Assay in all cases: Test G pre/postemergence
Type in all cases: in vivo
Settings in all cases: Preemergence
[1] = test system: johnsongrass (Sorghum halepense)
Procedure, shortened: (§1)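 Greenhouse pre/postemergence screen with surfactant-containing solvent formulation; postemergence plants were 1- to 4-leaf stage. Percent control (0–100) was judged by eye against controls after 12–21 days.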

[2] = test system: tropical spiderwort (Commelina benghalensis)
Procedure, shortened: as §1

[3] = test system: quackgrass (Elytrigia repens)
Procedure, shortened: as §1

[4] = test system: goosegrass (Eleusine indica)
Procedure, shortened: as §1

[5] = test system: Italian ryegrass (Lolium multiflorum)
Procedure, shortened: as §1

[6] = test system: downy bromegrass (Bromus tectorum)
Procedure, shortened: as §1

[7] = test system: common mallow (Malva sylvestris)
Procedure, shortened: as §1

[8] = test system: common chickweed (Stellaria media)
Procedure, shortened: as §1

[9] = test system: guineagrass (Panicum maximum)
Procedure, shortened: as §1

[10] = test system: bermudagrass (Cynodon dactylon)
Procedure, shortened: as §1

[11] = test system: prickly sida (Sida spinosa)
Procedure, shortened: as §1

[12] = test system: common ragweed (Ambrosia elatior)
Procedure, shortened: as §1

[13] = test system: Surinam grass (Brachiaria decumbens)
Procedure, shortened: as §1

[14] = test system: black mustard (Brassica nigra)
Procedure, shortened: as §1

COC(=O)c1nc(C2CC2)nc(N)c1Cl [Compound 9, methyl 6-amino-5-chloro-2-cyclopropyl-4-pyrimidinecarboxylate]
70: Plant response rating, Quackgrass ([3]; 62 g ai/ha, scale 0-100) | Plant response rating, Quackgrass ([3]; 250 g ai/ha, scale 0-100) | Plant response rating, Bromegrass, Downy ([6]; 250 g ai/ha, scale 0-100) | Plant response rating, Surinam Grass ([13]; 125 g ai/ha, scale 0-100) | Plant response rating, Black Mustard ([14]; 62 g ai/ha, scale 0-100)
100: Plant response rating, Spiderwort ([2]; 62 g ai/ha, scale 0-100) | Plant response rating, Spiderwort ([2]; 125 g ai/ha, scale 0-100) | Plant response rating, Spiderwort ([2]; 250 g ai/ha, scale 0-100) | Plant response rating, Spiderwort ([2]; 500 g ai/ha, scale 0 to 100) | Plant response rating, Quackgrass ([3]; 500 g ai/ha, scale 0 to 100) | Plant response rating, Bromegrass, Downy ([6]; 500 g ai/ha, scale 0 to 100) | Plant response rating, Mallow ([7]; 125 g ai/ha, scale 0-100) | Plant response rating, Mallow ([7]; 250 g ai/ha, scale 0-100) | Plant response rating, Mallow ([7]; 500 g ai/ha, scale 0 to 100) | Plant response rating, Chickweed ([8]; 125 g ai/ha, scale 0-100) | Plant response rating, Chickweed ([8]; 250 g ai/ha, scale 0-100) | Plant response rating, Chickweed ([8]; 500 g ai/ha, scale 0 to 100) | Plant response rating, Guineagrass ([9]; 125 g ai/ha, scale 0-100) | Plant response rating, Guineagrass ([9]; 250 g ai/ha, scale 0-100) | Plant response rating, Guineagrass ([9]; 500 g ai/ha, scale 0 to 100) | Plant response rating, Bermudagrass ([10]; 500 g ai/ha, scale 0 to 100) | Plant response rating, Prickly Sida ([11]; 125 g ai/ha, scale 0-100) | Plant response rating, Prickly Sida ([11]; 250 g ai/ha, scale 0-100) | Plant response rating, Prickly Sida ([11]; 500 g ai/ha, scale 0 to 100) | Plant response rating, Ragweed ([12]; 125 g ai/ha, scale 0-100) | Plant response rating, Ragweed ([12]; 250 g ai/ha, scale 0-100) | Plant response rating, Ragweed ([12]; 500 g ai/ha, scale 0 to 100) | Plant response rating, Black Mustard ([14]; 250 g ai/ha, scale 0-100) | Plant response rating, Black Mustard ([14]; 500 g ai/ha, scale 0 to 100)
50: Plant response rating, Ryegrass, Italian ([5]; 125 g ai/ha, scale 0-100) | Plant response rating, Bromegrass, Downy ([6]; 125 g ai/ha, scale 0-100)
80: Plant response rating, Johnsongrass ([1]; 125 g ai/ha, scale 0-100) | Plant response rating, Ryegrass, Italian ([5]; 500 g ai/ha, scale 0 to 100) | Plant response rating, Surinam Grass ([13]; 250 g ai/ha, scale 0-100)
60: Plant response rating, Goosegrass ([4]; 125 g ai/ha, scale 0-100)
20: Plant response rating, Ryegrass, Italian ([5]; 62 g ai/ha, scale 0-100)
40: Plant response rating, Johnsongrass ([1]; 62 g ai/ha, scale 0-100) | Plant response rating, Surinam Grass ([13]; 62 g ai/ha, scale 0-100)
90: Plant response rating, Mallow ([7]; 62 g ai/ha, scale 0-100) | Plant response rating, Guineagrass ([9]; 62 g ai/ha, scale 0-100) | Plant response rating, Surinam Grass ([13]; 500 g ai/ha, scale 0 to 100)
75: Plant response rating, Ryegrass, Italian ([5]; 250 g ai/ha, scale 0-100) | Plant response rating, Black Mustard ([14]; 125 g ai/ha, scale 0-100)
10: Plant response rating, Goosegrass ([4]; 62 g ai/ha, scale 0-100) | Plant response rating, Bromegrass, Downy ([6]; 62 g ai/ha, scale 0-100) | Plant response rating, Bermudagrass ([10]; 62 g ai/ha, scale 0-100)
95: Plant response rating, Johnsongrass ([1]; 250 g ai/ha, scale 0-100) | Plant response rating, Johnsongrass ([1]; 500 g ai/ha, scale 0 to 100) | Plant response rating, Goosegrass ([4]; 250 g ai/ha, scale 0-100) | Plant response rating, Goosegrass ([4]; 500 g ai/ha, scale 0 to 100) | Plant response rating, Bermudagrass ([10]; 125 g ai/ha, scale 0-100) | Plant response rating, Bermudagrass ([10]; 250 g ai/ha, scale 0-100) | Plant response rating, Prickly Sida ([11]; 62 g ai/ha, scale 0-100) | Plant response rating, Ragweed ([12]; 62 g ai/ha, scale 0-100)
